{"source": "patent US9211310B2", "about": "“Use of a Chinese medicine composition in preparing medicaments for treating secondary prevention of myocardial infarction” (TASLY PHARMACEUTICAL GROUP CO., LTD, priority 2010, dated 2015)", "tested_on": "patients after acute myocardial infarction", "test": "Life quality, Seattle Angina Questionnaire (SAQ), same clinical trial", "assay_type": "in vivo, human", "conditions": "PP", "text": "3508 patients who were in accordance with the diagnostic standards of AMI for 28 days to 2 years and differentiated as Qi deficiency and blood stagnation syndrome by TCM were studied. 0.5 g Chinese medicine composition prepared by the method of EXAMPLE 1 (Coded as QSYQ) was administrated half an hour after meal, 3 times per day.\nThere were 19 questions in the Seattle angina questionnaire (SAQ), including 5 parts: physical limitation (PL), anginal stability (AS), anginal frequency (AF), treatment satisfaction (TS) and disease perception (DP). After being given necessary explanation by doctors, the questions were answered independently by patients.\nThey included the overall survival time, angina pectoris score, TCM symptom score and life quality score, where angina pectoris score, TCM symptom score and life quality score were evaluated at randomization, in 1st, 3rd, 6th, 9th, 12th month after treatment and 18th month after follow-up.\nAll evaluation results of SAQ were described during the period of observation, and Wilcoxon rank sum test was used for inter-group comparison.\nThe evaluation results in the SAQ were depicted in different observations, and inter-group comparison was tested by Wilcoxon Rank-sum test."}
{"smiles": "CC(=O)Oc1ccccc1C(=O)O", "note": "[Control group, aspirine]", "values": [{"measurement": "SAQ Question 1-2 Severely limited, percent of patients", "setting": "12 months after treatment", "value": "(0.00%)"}, {"measurement": "SAQ Question 1-2 Slightly limited, number of patients", "setting": "12 months after treatment", "value": 45}, {"measurement": "SAQ Question 1-2 Slightly limited, percent of patients", "setting": "12 months after treatment", "value": "(3.16%)"}, {"measurement": "SAQ Question 1-6: Mildly limited, patients (%)", "setting": "12 months after treatment", "value": "(13.45%)"}, {"measurement": "SAQ Question 1-6: Moderately limited, patients (%)", "setting": "12 months after treatment", "value": "(9.58%)"}, {"measurement": "SAQ Question 1-6: Not limited, patients (%)", "setting": "12 months after treatment", "value": "(42.39%)"}, {"measurement": "SAQ Question 1-6: Other reasons, patients (%)", "setting": "12 months after treatment", "value": "(0.92%)"}, {"measurement": "SAQ Question 1-6: Severely limited, patients (%)", "setting": "12 months after treatment", "value": "(1.76%)"}, {"measurement": "SAQ Question 1-6: Slightly limited, patients (%)", "setting": "12 months after treatment", "value": "(31.90%)"}, {"measurement": "SAQ Question 1-7: Mildly limited, patients (%)", "setting": "12 months after treatment", "value": "(20.24%)"}, {"measurement": "SAQ Question 1-7: Moderately limited, patients (%)", "setting": "12 months after treatment", "value": "(9.84%)"}, {"measurement": "SAQ Question 1-7: Not limited, patients (%)", "setting": "12 months after treatment", "value": "(21.81%)"}, {"measurement": "SAQ Question 1-7: Other limited, patients (%)", "setting": "12 months after treatment", "value": "(3.56%)"}, {"measurement": "SAQ Question 1-7: Severely limited, patients (%)", "setting": "12 months after treatment", "value": "(12.05%)"}, {"measurement": "SAQ Question 1-7: Slightly limited, patients (%)", "setting": "12 months after treatment", "value": "(32.50%)"}, {"measurement": "SAQ Question 1-8: Mildly limited, patients (%)", "setting": "12 months after treatment", "value": "(24.98%)"}, {"measurement": "SAQ Question 1-8: Moderately limited, patients (%)", "setting": "12 months after treatment", "value": "(12.17%)"}, {"measurement": "SAQ Question 1-8: Not limited, patients (%)", "setting": "12 months after treatment", "value": "(14.53%)"}, {"measurement": "SAQ Question 1-8: Other reasons, patients (%)", "setting": "12 months after treatment", "value": "(4.22%)"}, {"measurement": "SAQ Question 1-8: Severely limited, patients (%)", "setting": "12 months after treatment", "value": "(15.68%)"}, {"measurement": "SAQ Question 1-8: Slightly limited, patients (%)", "setting": "12 months after treatment", "value": "(28.42%)"}, {"measurement": "8th question: Dissatisfied, patients (%)", "setting": "Baseline", "value": "(0.87%)"}, {"measurement": "8th question: Highly satisfied, patients (%)", "setting": "Baseline", "value": "(14.83%)"}, {"measurement": "8th question: Mostly dissatisfied, patients (%)", "setting": "Baseline", "value": "(6.61%)"}, {"measurement": "8th question: Mostly satisfied, patients (%)", "setting": "Baseline", "value": "(45.16%)"}, {"measurement": "8th question: Partly satisfied, patients (%)", "setting": "Baseline", "value": "(32.53%)"}, {"measurement": "9th question: Few, patients (%)", "setting": "Baseline", "value": "(20.91%)"}, {"measurement": "9th question: Mild, patients (%)", "setting": "Baseline", "value": "(37.01%)"}, {"measurement": "9th question: Moderate, patients (%)", "setting": "Baseline", "value": "(26.99%)"}, {"measurement": "9th question: Severe, patients (%)", "setting": "Baseline", "value": "(3.34%)"}, {"measurement": "9th question: Uneffective, patients (%)", "setting": "Baseline", "value": "(11.76%)"}, {"measurement": "10th question: Dissatisfied, patients (%)", "setting": "Baseline", "value": "(25.25%)"}, {"measurement": "10th question: Highly satisfied, patients (%)", "setting": "Baseline", "value": "(2.07%)"}, {"measurement": "10th question: Mostly dissatisfied, patients (%)", "setting": "Baseline", "value": "(24.11%)"}, {"measurement": "10th question: Mostly satisfied, patients (%)", "setting": "Baseline", "value": "(16.30%)"}, {"measurement": "10th question: Partly satisfied, patients (%)", "setting": "Baseline", "value": "(32.26%)"}, {"measurement": "11th question: Continuously worried, patients (%)", "setting": "Baseline", "value": "(9.21%)"}, {"measurement": "11th question: No worried, patients (%)", "setting": "Baseline", "value": "(3.94%)"}, {"measurement": "11th question: Occasionally worried, patients (%)", "setting": "Baseline", "value": "(41.32%)"}, {"measurement": "11th question: Often worried, patients (%)", "setting": "Baseline", "value": "(25.10%)"}, {"measurement": "11th question: Seldom worried, patients (%)", "setting": "Baseline", "value": "(20.43%)"}, {"measurement": "SAQ 4th question, 1-2 times per week: % of patients", "setting": "Baseline", "value": "(20.17%)"}, {"measurement": "SAQ 4th question, 1-2 times per week: number of patients", "setting": "Baseline", "value": 301}, {"measurement": "SAQ 4th question, 1-3 times per day: % of patients", "setting": "Baseline", "value": "(8.78%)"}, {"measurement": "SAQ 4th question, 1-3 times per day: number of patients", "setting": "Baseline", "value": 131}, {"measurement": "SAQ 4th question, <1 time per week: % of patients", "setting": "Baseline", "value": "(9.52%)"}, {"measurement": "SAQ 4th question, <1 time per week: number of patients", "setting": "Baseline", "value": 142}, {"measurement": "SAQ 4th question, Not used: % of patients", "setting": "Baseline", "value": "(43.16%)"}, {"measurement": "SAQ 4th question, Not used: number of patients", "setting": "Baseline", "value": 644}, {"measurement": "SAQ 4th question, ≧3 times per week: % of patients", "setting": "Baseline", "value": "(17.43%)"}, {"measurement": "SAQ 4th question, ≧3 times per week: number of patients", "setting": "Baseline", "value": 260}, {"measurement": "SAQ 4th question, ≧4 times per day: % of patients", "setting": "Baseline", "value": "(0.94%)"}, {"measurement": "SAQ 4th question, ≧4 times per day: number of patients", "setting": "Baseline", "value": 14}, {"measurement": "SAQ 5th question, Few: % of patients", "setting": "Baseline", "value": "(19.21%)"}, {"measurement": "SAQ 5th question, Few: number of patients", "setting": "Baseline", "value": 287}, {"measurement": "SAQ 5th question, Mild: % of patients", "setting": "Baseline", "value": "(31.26%)"}, {"measurement": "SAQ 5th question, Mild: number of patients", "setting": "Baseline", "value": 467}, {"measurement": "SAQ 5th question, Moderate: % of patients", "setting": "Baseline", "value": "(21.29%)"}, {"measurement": "SAQ 5th question, Moderate: number of patients", "setting": "Baseline", "value": 318}, {"measurement": "SAQ 5th question, None: % of patients", "setting": "Baseline", "value": "(22.02%)"}, {"measurement": "SAQ 5th question, None: number of patients", "setting": "Baseline", "value": 329}, {"measurement": "SAQ 5th question, Not medicated by doctors: % of patients", "setting": "Baseline", "value": "(3.01%)"}, {"measurement": "SAQ 5th question, Not medicated by doctors: number of patients", "setting": "Baseline", "value": 45}, {"measurement": "SAQ 5th question, Severe: % of patients", "setting": "Baseline", "value": "(3.21%)"}, {"measurement": "SAQ 5th question, Severe: number of patients", "setting": "Baseline", "value": 48}, {"measurement": "SAQ 6th question, Dissatisfied: % of patients", "setting": "Baseline", "value": "(1.14%)"}, {"measurement": "SAQ 6th question, Dissatisfied: number of patients", "setting": "Baseline", "value": 17}, {"measurement": "SAQ 6th question, Highly satisfied: % of patients", "setting": "Baseline", "value": "(14.90%)"}, {"measurement": "SAQ 6th question, Highly satisfied: number of patients", "setting": "Baseline", "value": 223}, {"measurement": "SAQ 6th question, Mostly dissatisfied: % of patients", "setting": "Baseline", "value": "(6.48%)"}, {"measurement": "SAQ 6th question, Mostly dissatisfied: number of patients", "setting": "Baseline", "value": 97}, {"measurement": "SAQ 6th question, Mostly satisfied: % of patients", "setting": "Baseline", "value": "(44.29%)"}, {"measurement": "SAQ 6th question, Mostly satisfied: number of patients", "setting": "Baseline", "value": 663}, {"measurement": "SAQ 6th question, Partly satisfied: % of patients", "setting": "Baseline", "value": "(33.20%)"}, {"measurement": "SAQ 6th question, Partly satisfied: number of patients", "setting": "Baseline", "value": 497}, {"measurement": "SAQ 7th question, Dissatisfied: % of patients", "setting": "Baseline", "value": "(0.33%)"}, {"measurement": "SAQ 7th question, Dissatisfied: number of patients", "setting": "Baseline", "value": 5}]}
